BindingDB's records for doi:10.7270/Q2F47MKR (Burnham Center For Chemical Genomics, 2010)

experiment: GPR35 antagonists, SAR follow-up, imaging, image-based, set 2 (AID 2480); details: not given

Row | SMILES | IC50
1 | Cc1ccc2[nH]c(C)c(/C=C/c3cc[n+](C)cc3)c2c1 | 2360 nM
2 | COc1ccc(Cn2c(SCC(=O)Nc3ccc(C)c(C)c3)nc3ccsc3c2=O)cc1 | > 32000 nM
3 | Clc1ccc(Cn2ncc3c(N4CCN(c5ccccc5)CC4)ncnc32)cc1 | 7170 nM
4 | Cc1ccc(C)c(OCCC(=O)NCCc2ccc(S(N)(=O)=O)cc2)c1 | > 32000 nM
5 | c1ccc(-c2n[n+](-c3ccccc3)c(-c3ccccc3)s2)cc1 | > 32000 nM
6 | COc1ccc(/C=C2\SC(=S)N(CCCC(=O)Nc3cccc(C(=O)O)c3)C2=O)cc1OC [3-[4-[(5Z)-5-[(3,4-dimethoxyphenyl)methylidene]-4-oxidanylidene-2-sulfanylidene-1,3-thiazolidin-3-yl]butanoylamino]benzoic acid] | 607 nM
7 | O=C(CCCN1C(=O)/C(=C/c2ccc3c(c2)OCO3)SC1=S)Nc1cccc(C(=O)O)c1 [3-[[4-[(5Z)-5-(1,3-benzodioxol-5-ylmethylidene)-4-oxo-2-sulfanylidene-3-thiazolidinyl]-1-oxobutyl]amino]benzoic acid] | 983 nM
8 | COc1ccc(/C=C2\SC(=S)N(CCCC(=O)Nc3ccc(C(=O)O)c(O)c3)C2=O)cc1OC [4-[4-[(5Z)-5-[(3,4-dimethoxyphenyl)methylidene]-4-oxo-2-sulfanylidene-1,3-thiazolidin-3-yl]butanoylamino]-2-hydroxybenzoic acid] | 151 nM
9 | COc1cccc(/C=C2\SC(=S)N(CCCC(=O)Nc3ccc(C(=O)O)cc3)C2=O)c1 [4-[4-[(5Z)-5-[(3-methoxyphenyl)methylidene]-4-oxo-2-sulfanylidene-1,3-thiazolidin-3-yl]butanoylamino]benzoic acid] | 651 nM
10 | O=C(CCCN1C(=O)/C(=C/c2ccc3c(c2)OCO3)SC1=S)Nc1ccc(C(=O)O)c(O)c1 [4-[[4-[(5Z)-5-(1,3-benzodioxol-5-ylmethylidene)-4-oxo-2-sulfanylidene-3-thiazolidinyl]-1-oxobutyl]amino]-2-hydroxybenzoic acid] | 300 nM
11 | Cc1ccc(/C=C2\SC(=S)N(CCCC(=O)Nc3ccc(O)cc3)C2=O)cc1 [MLS000777252] | 1420 nM
12 | CC(C)(C)c1ccc(OCCC(=O)NCCc2ccc(S(N)(=O)=O)cc2)cc1 [MLS001151090] | 2230 nM
13 | Cc1ccccc1OCCC(=O)NCCc1ccc(S(N)(=O)=O)cc1 [MLS-0213188.0001] | > 32000 nM
14 | Cc1ccc(OCCC(=O)NCCc2ccc(S(N)(=O)=O)cc2)cc1 [MLS-0213737.0001] | > 32000 nM
15 | COc1ccc(/C=C2\SC(=S)N(CCCC(=O)Nc3ccc(O)cc3)C2=O)cc1 [MLS-0304362.0001] | 1160 nM
16 | CCOC(=O)c1ccc(NC(=O)CCCN2C(=O)/C(=C/c3ccc(C)cc3)SC2=S)cc1 [MLS-0435416.0001] | 2600 nM
17 | Cc1nc(N2CCC(C)CC2)c2c(C)c(C(=O)Nc3ccc4c(c3)OCCO4)sc2n1 [N-(2,3-dihydro-1,4-benzodioxin-6-yl)-2,5-dimethyl-4-(4-methyl-1-piperidinyl)-6-thieno[2,3-d]pyrimidinecarboxamide] | 1880 nM
18 | Cc1c(C(=O)Nc2ccc3c(c2)OCCO3)sc2ncnc(N3CCC(C)CC3)c12 [N-(2,3-dihydro-1,4-benzodioxin-6-yl)-5-methyl-4-(4-methyl-1-piperidinyl)-6-thieno[2,3-d]pyrimidinecarboxamide] | 4070 nM
19 | Cc1c(C(=O)Nc2ccc3c(c2)OCCO3)sc2ncnc(O)c12 [N-(2,3-dihydro-1,4-benzodioxin-6-yl)-5-methyl-4-oxo-3H-thieno[2,3-d]pyrimidine-6-carboxamide] | > 32000 nM
20 | COc1ccc(/C=C2/SC(=S)N(CCCC(=O)Nc3ccc(O)cc3)C2=O)cc1 [N-(4-hydroxyphenyl)-4-[(5E)-5-[(4-methoxyphenyl)methylidene]-4-oxidanylidene-2-sulfanylidene-1,3-thiazolidin-3-yl]butanamide] | 1070 nM
21 | CCc1ccc(/C=C2\SC(=S)N(CCCC(=O)Nc3ccc(C(=O)O)cc3)C2=O)cc1 [SMR000646238] | 71.8 nM
22 | O=C(CCCN1C(=O)/C(=C/c2ccc3c(c2)OCO3)SC1=S)Nc1ccc(C(=O)O)cc1 [SMR000664854] | 1180 nM

Now from value to compound:

Row | IC50 | SMILES
23 | 554 nM | O=C(Nc1ccc2nc(SCc3ccc(Cl)cc3)sc2c1)c1ccccc1C(=O)N1CCOCC1
24 | > 32000 nM | O=C(Nc1ccc2nc(SCc3ccc(Cl)c(Cl)c3)sc2c1)c1ccccc1Br
25 | > 32000 nM | CCC(Sc1nc2ccsc2c(=O)n1Cc1ccc(C(=O)O)cc1)C(=O)Nc1ccc(C)c(Cl)c1 (stereo unspecified)
26 | > 32000 nM | Clc1ccccc1Cn1ncc2c(N3CCN(c4ccccc4)CC3)ncnc21
27 | 2650 nM | Cc1ccc(Cn2ncc3c(N4CCN(c5ccccc5C)CC4)ncnc32)cc1 [1-(4-methylbenzyl)-4-[4-(2-methylphenyl)-1-piperazinyl]-1H-pyrazolo[3,4-d]pyrimidine]
28 | 2220 nM | Cc1ccccc1N1CCN(c2ncnc3c2cnn3Cc2ccc(Cl)cc2)CC1 [1-[(4-chlorophenyl)methyl]-4-[4-(2-methylphenyl)-1-piperazinyl]pyrazolo[3,4-d]pyrimidine]
29 | > 32000 nM | Clc1ccc(Cn2ncc3c(N4CCN(c5cccc(Cl)c5)CC4)ncnc32)cc1 [1-[(4-chlorophenyl)methyl]-4-[4-(3-chlorophenyl)piperazin-1-yl]pyrazolo[3,4-d]pyrimidine]
30 | > 32000 nM | COc1ccc(-c2nnc(-c3cccnc3)o2)cc1 [2-(4-methoxyphenyl)-5-pyridin-3-yl-1,3,4-oxadiazole]
31 | 1610 nM | O=C(Nc1ccc2nc(SCc3ccccc3)sc2c1)c1ccccc1C(=O)N1CCOCC1 [2-[4-morpholinyl(oxo)methyl]-N-[2-(phenylmethylthio)-1,3-benzothiazol-6-yl]benzamide]
32 | 4990 nM | C=CCn1c(C)c(/C=C/c2cc[n+](C)cc2)c2ccccc21 [2-methyl-3-[(E)-2-(1-methyl-4-pyridin-1-iumyl)ethenyl]-1-prop-2-enylindole;iodide]
33 | 1600 nM | O=C(CCCN1C(=O)/C(=C\c2ccccc2)SC1=S)Nc1cccc(C(=O)O)c1 [3-[4-(5-Benzylidene-4-oxo-2-thioxo-thiazolidin-3-yl)-butyrylamino]-benzoic acid]
34 | 1170 nM | O=C(CCCN1C(=O)S/C(=C/C=C/c2ccccc2)C1=O)Nc1ccc(C(=O)O)cc1 [4-[4-[(5E)-2,4-dioxo-5-[(E)-3-phenylprop-2-enylidene]-1,3-thiazolidin-3-yl]butanoylamino]benzoic acid]
35 | 105 nM | CC(/C=C1\SC(=S)N(CCCC(=O)Nc2ccc(C(=O)O)cc2)C1=O)=C\c1ccccc1 [4-[4-[(5Z)-5-[(E)-2-methyl-3-phenyl-prop-2-enylidene]-4-oxidanylidene-2-sulfanylidene-1,3-thiazolidin-3-yl]butanoylamino]benzoic acid]
36 | 295 nM | O=C(CCCN1C(=O)/C(=C/c2ccccc2)SC1=S)Nc1ccc(C(=O)O)c(O)c1 [4-[4-[(5Z)-5-benzylidene-4-oxo-2-sulfanylidene-1,3-thiazolidin-3-yl]butanoylamino]-2-hydroxybenzoic acid]
37 | 1680 nM | O=C(CCCN1C(=O)/C(=C\c2ccccc2)SC1=S)Nc1ccc(C(=O)O)cc1 [4-[[1-oxo-4-[(5E)-4-oxo-5-(phenylmethylene)-2-sulfanylidene-3-thiazolidinyl]butyl]amino]benzoic acid]
38 | 1330 nM | CC(C)c1ccc(NC(=O)CSc2nc3ccsc3c(=O)n2Cc2ccc(C(=O)O)cc2)cc1 [4-[[4-oxo-2-[2-oxo-2-(4-propan-2-ylanilino)ethyl]sulfanylthieno[3,2-d]pyrimidin-3-yl]methyl]benzoic acid]
39 | 5170 nM | Cn1cc(/C=C/c2cc[n+](C)cc2)c2cc(Cl)ccc21 [5-chloranyl-1-methyl-3-[(E)-2-(1-methylpyridin-1-ium-4-yl)ethenyl]indole;hydroiodide]
40 | 1170 nM | O=C(CCCN1C(=O)S/C(=C\C=C\c2ccccc2)C1=O)Nc1ccc(C(=O)O)cc1 [MLS000948015]
41 | 240 nM | Cc1ccc(/C=C2\SC(=S)N(CCCC(=O)Nc3cccc(C(=O)O)c3)C2=O)cc1 [MLS001034563]
42 | 1600 nM | O=C(CCCN1C(=O)S/C(=C/c2ccccc2)C1=S)Nc1ccc(C(=O)O)cc1 [MLS001167691]
43 | 6100 nM | Cc1nc(N2CCC(C)CC2)c2c(C)c(C(=O)Nc3ccc(C)c(F)c3)sc2n1 [MLS-0244945.0001]
44 | > 32000 nM | Cc1c(C(=O)Nc2ccc3c(c2)OCCO3)sc2ncnc(N3CCCCC3C)c12 (stereo unspecified) [MLS-0359029.0001]
45 | > 32000 nM | CCC(Sc1nc2ccsc2c(=O)n1Cc1ccc(C(=O)O)cc1)C(=O)Nc1ccc(Cl)cc1 (stereo unspecified) [MLS-0435427.0001]
46 | > 32000 nM | Fc1ccc(N2CCN(c3ncnc4c3cnn4Cc3ccc(Cl)cc3Cl)CC2)cc1 [MLS-0435440.0001]
47 | > 32000 nM | CC(C)COc1ccc(-c2nnc(-c3ccc(Cl)nc3)o2)cc1 [MLS-0435441.0001]
48 | > 32000 nM | CCc1ccc(NC(=O)CSc2nc3ccsc3c(=O)n2Cc2ccc(OC)cc2)cc1 [N-(4-ethylphenyl)-2-[[3-[(4-methoxyphenyl)methyl]-4-oxo-2-thieno[3,2-d]pyrimidinyl]thio]acetamide]
49 | 8710 nM | O=C(CCCN1C(=O)/C(=C/c2ccccc2)SC1=S)Nc1ccc(O)cc1 [N-(4-hydroxyphenyl)-4-[(5Z)-4-oxo-5-(phenylmethylene)-2-sulfanylidene-3-thiazolidinyl]butanamide]

same assay, conditions: inactive by the depositor's call

Row | SMILES | IC50
50 | O=C(CCCN1C(=O)/C(=C/c2cccs2)SC1=S)Nc1ccc(O)cc1 | 10700 nM
51 | CCOc1ccc(NC(=O)CSc2nc3ccsc3c(=O)n2Cc2ccc(C(=O)O)cc2)cc1 | 12500 nM
52 | c1ccc(Cn2ncc3c(N4CCN(c5ccccc5)CC4)ncnc32)cc1 [1-(phenylmethyl)-4-(4-phenylpiperazin-1-yl)pyrazolo[3,4-d]pyrimidine] | 17000 nM
53 | O=C(CCCN1C(=O)/C(=C\c2cccs2)SC1=S)Nc1ccc(O)cc1 [N-(4-hydroxyphenyl)-4-[(5E)-4-oxo-2-sulfanylidene-5-(thiophen-2-ylmethylidene)-1,3-thiazolidin-3-yl]butanamide] | 11000 nM

Next, values leading:

Row | IC50 | SMILES
54 | 17700 nM | Cc1ccc(Cn2ncc3c(N4CCN(c5ccc(C)cc5)CC4)ncnc32)cc1
55 | 11800 nM | O=C(CCCN1C(=O)/C(=C\c2ccccc2)SC1=S)Nc1ccc(O)cc1 [N-(4-hydroxyphenyl)-4-[(5E)-4-oxidanylidene-5-(phenylmethylidene)-2-sulfanylidene-1,3-thiazolidin-3-yl]butanamide]
56 | 10200 nM | Cc1nc(N2CCC(C)CC2)c2c(C)c(C(=O)Nc3ccccc3C(F)(F)F)sc2n1 [SMR000312025]
